In PMC4367188 (ACS Chemical Neuroscience, 2015):
Changes are numbered by the printed parent chain. Numbers in names are those of the source.

Columns and labels:
[1] = molecular target: T1, WT hCHT (Homo sapiens, UniProt Q9GZV3); test: cell-surface biotinylation, CHT surface expression in WT hCHT HEK 293 cells; type: cell-based
T1 sequence (Q9GZV3 1-580): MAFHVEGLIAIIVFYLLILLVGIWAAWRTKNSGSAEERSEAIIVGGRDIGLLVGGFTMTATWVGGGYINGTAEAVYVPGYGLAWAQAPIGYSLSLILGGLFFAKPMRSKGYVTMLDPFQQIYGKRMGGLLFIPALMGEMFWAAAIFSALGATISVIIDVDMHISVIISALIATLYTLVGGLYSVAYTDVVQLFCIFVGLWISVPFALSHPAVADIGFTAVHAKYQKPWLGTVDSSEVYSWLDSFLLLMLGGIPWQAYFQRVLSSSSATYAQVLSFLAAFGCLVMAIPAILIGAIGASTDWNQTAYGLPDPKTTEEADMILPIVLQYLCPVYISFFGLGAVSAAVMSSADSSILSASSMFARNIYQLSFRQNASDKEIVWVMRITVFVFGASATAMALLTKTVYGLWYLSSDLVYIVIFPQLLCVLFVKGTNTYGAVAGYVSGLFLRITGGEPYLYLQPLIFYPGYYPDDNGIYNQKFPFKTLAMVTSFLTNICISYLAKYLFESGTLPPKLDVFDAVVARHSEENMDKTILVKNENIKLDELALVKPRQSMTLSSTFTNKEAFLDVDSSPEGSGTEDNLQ

[2] = molecular target: T2, hCHT (Homo sapiens, UniProt Q9GZV3); test: [3H]HC-3 binding to membranes from HEK hCHT cells
T2 sequence (Q9GZV3 1-580): T1 sequence (Q9GZV3 1-580)

[3] = substrate: C[N+](C)(C)CCO; test: cells, lysate or membranes; settings: other: hCHT LV-AA transfected cells; no inhibitor; 37.0 °C

Molecule: C[N+]1(C)CCOC(O)(c2ccc(-c3ccc(C4(O)C[N+](C)(C)CCO4)cc3)cc2)C1 (stereo not shown) [HC-3, hemicholinium-3, reference compound]
- increase in steady-state hCHT surface expression ([1]; 5 μM, 15 min incubation): 76 ± 16 % of control
- Kd [2]: 8.5 ± 1.1 nM

Molecule: C[N+](C)(C)CCO [choline]
- effect of choline on CHT surface expression ([1]; choline (10 μM), 15 min): no evidence for the previously reported choline-dependent reductions

B1: hCHT LV-AA (Homo sapiens; L531A/V532A) (protein)
chain: T1 sequence (Q9GZV3 1-580) with L531A, V532A
- Km [3]: 2.5 ± 0.4 µM
